# Values joined by “and” are separate entries in the source; they are usually repeats but may differ in a detail not shown here. Identical values can stand only once.
# What was measured:
# [1] = system: Capan-1 cells (K-Ras G12V); assay: CellTiter-Glo cell viability, Capan-1; type: cell-based, human; settings: Homo sapiens, CAPAN-1, 120 h, K-Ras G12V, 5-day treatment; read-out: Capan-1 Cell Viability IC50
# Method in brief: (§1)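 Compounds dispensed directly onto seeded cells; on day 5 plates equilibrated ~30 min to room temperature and luminescence read. Signal normalized to DMSO average (%) and fitted by four-parameter logistic.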
# KRAS G12C = KRAS G12C (Homo sapiens (Human), UniProt P01116+P62937, G12C); assay: Ras-Raf disruption/FRET/MOA assay (BRAF RBD, Cyclophilin A); type: biochemical; settings: read-out: KRAS G12C FRET IC50
# Chain of KRAS G12C (P01116-2 other isoform, or with tags, fused parts or gaps G12C): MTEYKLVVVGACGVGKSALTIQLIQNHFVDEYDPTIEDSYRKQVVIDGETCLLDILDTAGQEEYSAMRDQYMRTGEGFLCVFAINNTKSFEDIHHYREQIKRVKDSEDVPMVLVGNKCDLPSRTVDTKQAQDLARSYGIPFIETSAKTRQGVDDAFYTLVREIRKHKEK
# Chain of KRAS G12C (P62937 whole entry): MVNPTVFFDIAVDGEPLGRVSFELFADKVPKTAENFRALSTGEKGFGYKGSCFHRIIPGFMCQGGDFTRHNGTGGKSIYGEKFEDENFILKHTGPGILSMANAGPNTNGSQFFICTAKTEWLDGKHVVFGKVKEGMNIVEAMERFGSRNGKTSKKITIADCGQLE
# Method in brief: (§2)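 TR-FRET readout: anti-His Eu-W1024 (10 nM) and anti-GST allophycocyanin (50 nM) added after 3 h, 25° C compound incubation, then 1.5 h more. Decrease in FRET ratio versus DMSO wells marks Ras:RAF disruption; IC50 reported.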
# KRAS G12D = KRAS G12D (Homo sapiens (Human), UniProt P01116+P62937, G12D); assay: as above; type: biochemical; settings: read-out: KRAS G12D FRET IC50
# Chain of KRAS G12D (P01116 other isoform, or with tags, fused parts or gaps G12D): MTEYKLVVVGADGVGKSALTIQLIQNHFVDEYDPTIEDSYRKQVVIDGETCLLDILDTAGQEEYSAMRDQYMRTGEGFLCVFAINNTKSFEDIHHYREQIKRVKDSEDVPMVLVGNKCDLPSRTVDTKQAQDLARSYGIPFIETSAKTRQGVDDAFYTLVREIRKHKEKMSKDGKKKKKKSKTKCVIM
# Chain of KRAS G12D (P62937 whole entry): as the sequence (P62937 whole entry) above
# Method in brief: as §2
# KRAS G12S = KRAS G12S (Homo sapiens (Human), UniProt P01116+P62937, G12S); assay: as above; type: biochemical; settings: read-out: KRAS G12S FRET IC50
# Chain of KRAS G12S (P01116 other isoform, or with tags, fused parts or gaps G12S): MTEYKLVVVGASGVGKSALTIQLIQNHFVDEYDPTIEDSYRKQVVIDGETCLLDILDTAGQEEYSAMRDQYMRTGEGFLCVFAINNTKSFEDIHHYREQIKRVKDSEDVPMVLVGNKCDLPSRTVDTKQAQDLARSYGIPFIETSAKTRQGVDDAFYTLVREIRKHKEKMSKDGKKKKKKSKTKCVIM
# Chain of KRAS G12S (P62937 whole entry): as the sequence (P62937 whole entry) above
# Method in brief: as §2
# KRAS G12V = KRAS G12V (Homo sapiens (Human), UniProt P01116+P62937, G12V); assay: as above; type: biochemical; settings: read-out: KRAS G12V FRET IC50
# Chain of KRAS G12V (P01116 other isoform, or with tags, fused parts or gaps G12V): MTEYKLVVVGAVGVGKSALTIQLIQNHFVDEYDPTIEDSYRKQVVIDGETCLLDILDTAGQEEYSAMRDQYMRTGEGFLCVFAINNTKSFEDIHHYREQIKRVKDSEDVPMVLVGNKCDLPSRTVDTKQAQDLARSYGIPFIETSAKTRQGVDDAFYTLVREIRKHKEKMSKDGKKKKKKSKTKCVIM
# Chain of KRAS G12V (P62937 whole entry): as the sequence (P62937 whole entry) above
# Method in brief: as §2
# KRAS G13C = KRAS G13C (Homo sapiens (Human), UniProt P01116+P62937, G13C); assay: as above; type: biochemical; settings: read-out: KRAS G13C FRET IC50
# Chain of KRAS G13C (P01116 other isoform, or with tags, fused parts or gaps G13C): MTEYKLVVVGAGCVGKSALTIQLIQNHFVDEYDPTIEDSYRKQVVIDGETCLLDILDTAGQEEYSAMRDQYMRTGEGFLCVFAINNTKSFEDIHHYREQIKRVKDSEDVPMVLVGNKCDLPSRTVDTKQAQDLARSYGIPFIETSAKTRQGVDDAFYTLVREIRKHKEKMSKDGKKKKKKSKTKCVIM
# Chain of KRAS G13C (P62937 whole entry): as the sequence (P62937 whole entry) above
# Method in brief: as §2
# KRAS G13D = KRAS G13D (Homo sapiens (Human), UniProt P01116+P62937, G13D); assay: as above; type: biochemical; settings: read-out: KRAS G13D FRET data IC50
# Chain of KRAS G13D (P01116 other isoform, or with tags, fused parts or gaps G13D): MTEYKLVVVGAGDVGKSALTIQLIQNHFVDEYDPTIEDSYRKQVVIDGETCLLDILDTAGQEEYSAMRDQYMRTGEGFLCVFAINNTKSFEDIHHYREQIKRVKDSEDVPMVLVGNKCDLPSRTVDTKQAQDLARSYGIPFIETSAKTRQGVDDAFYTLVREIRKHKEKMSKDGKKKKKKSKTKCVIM
# Chain of KRAS G13D (P62937 whole entry): as the sequence (P62937 whole entry) above
# Method in brief: as §2
# KRAS Q61H = KRAS Q61H (Homo sapiens (Human), UniProt P01116+P62937, Q61H); assay: as above; type: biochemical
# Chain of KRAS Q61H (P01116 other isoform, or with tags, fused parts or gaps Q61H): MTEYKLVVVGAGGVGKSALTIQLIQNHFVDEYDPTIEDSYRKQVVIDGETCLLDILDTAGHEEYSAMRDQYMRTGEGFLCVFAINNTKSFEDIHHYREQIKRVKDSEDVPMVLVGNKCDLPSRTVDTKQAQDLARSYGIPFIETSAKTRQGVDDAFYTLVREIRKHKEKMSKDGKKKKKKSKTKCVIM
# Chain of KRAS Q61H (P62937 whole entry): as the sequence (P62937 whole entry) above
# Method in brief: as §2
# KRAS WT = KRAS WT (Homo sapiens (Human), UniProt P01116+P62937); assay: as above; type: biochemical; settings: read-out: KRAS WT FRET data IC50
# Chain of KRAS WT (P01116 other isoform, or with tags, fused parts or gaps): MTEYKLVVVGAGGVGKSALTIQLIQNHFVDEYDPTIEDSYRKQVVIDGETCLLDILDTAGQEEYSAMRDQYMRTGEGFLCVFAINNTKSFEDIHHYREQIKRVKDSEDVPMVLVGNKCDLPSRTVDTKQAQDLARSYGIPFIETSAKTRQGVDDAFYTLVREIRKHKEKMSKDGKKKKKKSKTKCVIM
# Chain of KRAS WT (P62937 whole entry): as the sequence (P62937 whole entry) above
# Method in brief: as §2
# NRAS G12C = NRAS G12C (Homo sapiens (Human), UniProt P01111+P62937, G12C); assay: as above; type: biochemical; settings: read-out: NRAS G12C FRET data IC50
# Chain of NRAS G12C (P01111 whole entry G12C): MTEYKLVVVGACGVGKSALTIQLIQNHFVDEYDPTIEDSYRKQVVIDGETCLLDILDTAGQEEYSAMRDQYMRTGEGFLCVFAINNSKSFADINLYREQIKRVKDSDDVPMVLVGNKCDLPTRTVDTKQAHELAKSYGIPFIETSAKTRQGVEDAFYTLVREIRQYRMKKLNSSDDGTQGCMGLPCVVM
# Chain of NRAS G12C (P62937 whole entry): as the sequence (P62937 whole entry) above
# Method in brief: (§3)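 25 μM tagless Cyclophilin A, 12.5 nM His6-Ras-GMPPNP and 50 nM GST-BRAF RBD in HEPES pH 7.3 buffer with 5 mM MgCl2, with compound (10-point 3-fold series from 30 μM final) for 3 h at 25 °C. Anti-His Eu and anti-GST APC then added for 1.5 h. IC50 from TR-FRET ratio decrease versus DMSO.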
# NRAS Q61K = NRAS Q61K (Homo sapiens (Human), UniProt P01111+P62937, Q61K); assay: as above; type: biochemical
# Chain of NRAS Q61K (P01111 whole entry Q61K): as the sequence (P01111 whole entry G12C) above, with C12G, Q61K counted along it
# Chain of NRAS Q61K (P62937 whole entry): as the sequence (P62937 whole entry) above
# Method in brief: as §3
# NRAS Q61R = NRAS Q61R (Homo sapiens (Human), UniProt P01111+P62937, Q61R); assay: as above; type: biochemical
# Chain of NRAS Q61R (P01111 whole entry Q61R): as the sequence (P01111 whole entry G12C) above, with C12G, Q61R counted along it
# Chain of NRAS Q61R (P62937 whole entry): as the sequence (P62937 whole entry) above
# Method in brief: as §3
# NRAS WT = NRAS WT (Homo sapiens (Human), UniProt P01111+P62937); assay: as above; type: biochemical
# Chain of NRAS WT (P01111 whole entry): as the sequence (P01111 whole entry G12C) above, with C12G counted along it
# Chain of NRAS WT (P62937 whole entry): as the sequence (P62937 whole entry) above
# Method in brief: as §3
# [2] = system: K-Ras G12C (NCI-H358 cells); assay: Potency assay: pERK in NCI-H358 cells; type: cell-based, human; settings: Homo sapiens; NCI-H358 cells, 4 hours; read-out: pERK EC50 (H358 KRAS G12C)
# Method in brief: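 Cells plated the day before were exposed for 4 h at 37° C, 5% CO2 to a 10-point, 3-fold DMSO dilution series (10 mM top stock), in duplicate. Phospho-ERK was read by AlphaLISA SureFire Ultra or by In-Cell Western with DRAQ5 DNA stain, and IC50 came from a 4-parameter sigmoidal fit.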
# NCI-H358 (K-Ras G12C) = assay: CellTiter-Glo cell viability assay, NCI-H358; type: cell-based, human; settings: Homo sapiens, NCI-H358, 120 h, 5-day treatment; read-out: H358 Cell Viability assay data (K-Ras G12C, IC50)
# Method in brief: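 NCI-H358 (K-Ras G12C) cells treated with compound dispensed directly into plates. CellTiter-Glo luminescence read on day 5 after ~30 min equilibration to room temperature. Signal normalised to DMSO average ×100, then fitted with a four-parameter logistic model.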
# [3] = molecular target: K-Ras G12C(GMP-PNP) binding to BRAF RBD (Homo sapiens (Human), UniProt P01116+P62937, G12C); assay: Disruption of BRAF RBD interaction with K-Ras (FRET / MOA assay), K-Ras G12C; type: biochemical; settings: read-out: KRAS G12C FRET IC50
# Chain of K-Ras G12C(GMP-PNP) binding to BRAF RBD (P01116 other isoform, or with tags, fused parts or gaps G12C): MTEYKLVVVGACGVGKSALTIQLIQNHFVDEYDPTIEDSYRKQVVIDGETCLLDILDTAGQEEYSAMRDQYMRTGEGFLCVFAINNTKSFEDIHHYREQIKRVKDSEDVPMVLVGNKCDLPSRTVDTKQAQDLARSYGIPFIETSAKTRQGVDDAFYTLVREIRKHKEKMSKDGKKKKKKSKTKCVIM
# Chain of K-Ras G12C(GMP-PNP) binding to BRAF RBD (P62937 whole entry, canonical isoform): as the sequence (P62937 whole entry) above
# Method in brief: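 Incubation of compound (up to 30 μM final, 3-fold steps) with GMP-PNP-type loaded Ras isoform, cyclophilin A and BRAF RBD ran 3 h at 25° C, followed by 1.5 h with detection antibodies. Disruption appears as a reduced TR-FRET ratio compared with DMSO controls, expressed as IC50.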
# [4] = system: NCI-H358 cells (K-Ras G12C); assay: CellTiter-Glo cell viability, NCI-H358; type: cell-based, human; settings: Homo sapiens, NCI-H358, 120 h, K-Ras G12C, 5-day treatment; read-out: H358 Cell Viability IC50
# Method in brief: as §1
Structure (SMILES),IC50 [1],IC50 (KRAS G12C),IC50 (KRAS G12D),IC50 (KRAS G12S),IC50 (KRAS G12V),IC50 (KRAS G13C),IC50 (KRAS G13D),IC50 (KRAS Q61H),IC50 (KRAS WT),IC50 (NRAS G12C),IC50 (NRAS Q61K),IC50 (NRAS Q61R),IC50 (NRAS WT),EC50 [2],IC50 (NCI-H358 (K-Ras G12C)),IC50 [3],IC50 [4]
CCn1c(-c2cccnc2[C@H](C)OC)c2c3cc(ccc31)-c1cc(O)cc(c1)C[C@H](NC(=O)CC(C)c1ccncc1)C(=O)N1CCC[C@H](N1)C(=O)OCC(C)(C)C2 (some centres unmarked) [Compound A178],> 10000 nM,100 to 1000 nM and 1000 to 10000 nM,1000 to 10000 nM and > 10000 nM,1000 to 10000 nM,1000 to 10000 nM,100 to 1000 nM,1000 to 10000 nM,100 to 1000 nM,100 to 1000 nM and 1000 to 10000 nM,1000 to 10000 nM,1000 to 10000 nM,1000 to 10000 nM and > 10000 nM,100 to 1000 nM and 1000 to 10000 nM,,,,
CCn1c(-c2cccnc2[C@H](C)OC)c2c3cc(ccc31)-c1cc(O)cc(c1)C[C@H](NC(=O)[C@@H]1[C@@H](C)CCN1C(C)=O)C(=O)N1CCC[C@H](N1)C(=O)OCC(C)(C)C2 [Compound A208],> 10000 nM,100 to 1000 nM,1000 to 10000 nM,1000 to 10000 nM,1000 to 10000 nM,100 to 1000 nM,1000 to 10000 nM,100 to 1000 nM,100 to 1000 nM,1000 to 10000 nM,100 to 1000 nM,1000 to 10000 nM,100 to 1000 nM,,,,
CCn1c(-c2cccnc2[C@H](C)OC)c2c3cc(ccc31)-c1cc(O)cc(c1)C[C@H](NC(=O)[C@H](C(C)C)N(C)C(=O)C1CCC(=O)N1C)C(=O)N1CCC[C@H](N1)C(=O)OCC(C)(C)C2 (some centres unmarked) [Compound A230],1000 to 10000 nM,10 to 100 nM,100 to 1000 nM,10 to 100 nM,10 to 100 nM,10 to 100 nM,100 to 1000 nM,10 to 100 nM,10 to 100 nM,10 to 100 nM,100 to 1000 nM,100 to 1000 nM,10 to 100 nM,,,,
CCn1c(-c2cccnc2[C@H](C)OC)c2c3cc(ccc31)-c1csc(n1)C[C@H](NC(=O)[C@H](C(C)C)N(C)C(=O)[C@H]1[C@@H]3CNC[C@@H]31)C(=O)N1CCC[C@H](N1)C(=O)OCC(C)(C)C2 [Compound A448],> 10000 nM,1000 to 10000 nM,1000 to 10000 nM,1000 to 10000 nM,,1000 to 10000 nM,1000 to 10000 nM,,1000 to 10000 nM,1000 to 10000 nM,1000 to 10000 nM,1000 to 10000 nM,1000 to 10000 nM,< 5000 nM,,,
CCn1c(-c2cccnc2[C@H](C)OC)c2c3cc(ccc31)-c1csc(n1)C[C@H](NC(=O)[C@H](C(C)C)N(C)C(=O)N1C[C@@H]3CCN(C)C[C@@H]31)C(=O)N1CCC[C@H](N1)C(=O)OCC(C)(C)C2 [Compound A516],100 to 1000 nM,1000 to 10000 nM,1000 to 10000 nM,1000 to 10000 nM,1000 to 10000 nM,1000 to 10000 nM,1000 to 10000 nM,,1000 to 10000 nM,1000 to 10000 nM,1000 to 10000 nM,1000 to 10000 nM,1000 to 10000 nM,,> 10000 nM,1000 to 10000 nM,
CCn1c(-c2cccnc2[C@H](C)OC)c2c3cc(ccc31)-c1csc(n1)C[C@H](NC(=O)[C@H](C(C)C)N(C)C(=O)N1C[C@H]3CCN(C)C[C@H]31)C(=O)N1CCC[C@H](N1)C(=O)OCC(C)(C)C2 [Compound A517],100 to 1000 nM,1000 to 10000 nM,1000 to 10000 nM,1000 to 10000 nM,1000 to 10000 nM,1000 to 10000 nM,1000 to 10000 nM,,1000 to 10000 nM,1000 to 10000 nM,1000 to 10000 nM,1000 to 10000 nM,1000 to 10000 nM,< 5000 nM,,,1000 to 10000 nM
CCn1c(-c2cc(N3CCN(C)CC3)cnc2[C@H](C)OC)c2c3cc(ccc31)-c1csc(n1)C[C@H](NC(=O)[C@H](C(C)C)N(C)C(=O)C1OCC[C@@H]1c1ccccc1)C(=O)N1CCC[C@H](N1)C(=O)OCC(C)(C)C2 (some centres unmarked) [Compound A583],< 10 nM,,,,,,,,,10 to 100 nM,100 to 1000 nM,10 to 100 nM,100 to 1000 nM,< 5000 nM,,,< 10 nM
"CCn1c(-c2cccnc2[C@H](C)OC)c2c3nc(ccc31)-c1csc(n1)C[C@H](NC(=O)[C@H](C(C)C)N(C)C(=O)N1CC(OC)C1)C(=O)N1CCC[C@H](N1)C(=O)OCC(C)(C)C2 [Compound A613, N-((2S)-1-(((6^3S,4S,Z)-1^1-ethyl-1^2-(2-((S)-1-methoxyethyl)pyridin-3-yl)-10,10-dimethyl-5,7-dioxo-6^1,6^2,6^3,6^4,6^5,6^6-hexahydro-1^1H-8-oxa-2 (4,2)-thiazola-1 (5,3)-pyrrolo [3,2-b]pyridina-6 (1,3)-pyridazinacycloundecaphane-4-yl)amino)-3-methyl-1-oxobutan-2-yl)-3-methoxy-N-methylazetidine-1-carboxamide]",100 to 1000 nM,1000 to 10000 nM,1000 to 10000 nM,1000 to 10000 nM,1000 to 10000 nM,1000 to 10000 nM,1000 to 10000 nM,,1000 to 10000 nM,1000 to 10000 nM,100 to 1000 nM,1000 to 10000 nM,1000 to 10000 nM,,10 to 100 nM,100 to 1000 nM,100 to 1000 nM
